Reference: patent US6906205B2, “Spiro and dispiro 1,2,4-trioxolane antimalarials” (Medicines for Malaria Venture MMV, priority 2002, dated 2005)
Converted amounts (≈) assume the structure as drawn.

system: P. falciparum NF54 strain (sensitive to standard antimalarials); experiment: semiautomated microdilution assay, [3H]-hypoxanthine incorporation, NF54 strain; format: cell-based, Plasmodium falciparum; details: NF54 strain, 72 h incubation
Experimental: (§1) Various OZ compounds were tested by the semiautomated microdilution assay against intraerythrocytic forms of Plasmodium falciparum derived from asynchronous stock cultures.
(§2) Fifty percent inhibitory concentration (IC50) were estimated by Logit regression analysis.

Structure (SMILES) | IC50 (ng/ml) NF54 [ng/mL]
C[C@H](N)C(=O)NC[C@H]1CC[C@]2(CC1)OO[C@]1(O2)C2CC3CC(C2)CC1C3 [OZ335] | 0.28 (≈ 0.768 nM)
CCN(CC)C(=O)C1CCC2(CC1)OOC1(O2)C2CC3CC(C2)CC1C3 (centres unmarked) [OZ73] | 8.2 (≈ 22.6 nM)
CCS(=O)(=O)CCN1CCC2(CC1)OOC1(O2)C2CC3CC(C2)CC1C3 (centres unmarked) [OZ200] | 2.9 (≈ 7.52 nM)
O=C(O)CCC(=O)N1CCC2(CC1)OOC1(O2)C2CC3CC(C2)CC1C3 (centres unmarked) [OZ58] | 7.2 (≈ 19.7 nM)
O=C1c2ccccc2C(=O)N1CC1(c2ccccc2)CCC2(CC1)OOC1(O2)C2CC3CC(C2)CC1C3 (centres unmarked) [OZ97] | 1.8 (≈ 3.6 nM)
CC(C)N(C(=O)N1CCC2(CC1)OOC1(O2)C2CC3CC(C2)CC1C3)C(C)C (centres unmarked) [OZ194] | 6.6 (≈ 16.8 nM)
C1CCC(NC2CCC3(CC2)OOC2(O3)C3CC4CC(C3)CC2C4)CC1 (centres unmarked) [OZ162] | 0.71 (≈ 1.96 nM)
O=c1ccn(C[C@H]2CC[C@]3(CC2)OO[C@]2(O3)C3CC4CC(C3)CC2C4)cc1 [OZ302] | 2.9 (≈ 7.81 nM)
OC1(Cc2nc3ccccc3s2)CCC2(CC1)OOC1(O2)C2CC3CC(C2)CC1C3 (centres unmarked) [OZ276] | 0.94 (≈ 2.2 nM)
O=C1CCC(=O)N1C[C@H]1CC[C@]2(CC1)OOC1(O2)C2CC3CC(C2)CC1C3 (some centres unmarked) [OZ197] | 2.0 (≈ 5.33 nM)
NCC[C@H]1CC[C@]2(CC1)OOC1(O2)C2CC3CC(C2)CC1C3 (some centres unmarked) [OZ229] | 0.23 (≈ 0.748 nM)
O=C(Cn1ccnc1)N1CCC2(CC1)OOC1(O2)C2CC3CC(C2)CC1C3 (centres unmarked) [OZ103] | 0.17 (≈ 0.455 nM)
CC(C)(C)CC(=O)N[C@H]1CC[C@]2(CC1)OOC1(O2)C2CC3CC(C2)CC1C3 (some centres unmarked) [OZ195] | 3.7 (≈ 9.8 nM)
CCOC(=O)NC[C@H]1CC[C@]2(CC1)OO[C@]1(O2)C2CC3CC(C2)CC1C3 [OZ289] | 0.56 (≈ 1.53 nM)

system: ANKA strain of P. berghei; experiment: single dose STI in vivo screen in infected mice; set-up: species or system Plasmodium berghei; details: percent reduction in parasitemia day 3 post-infection; single 3 mg/kg po in SSV
Experimental: In the single dose STI in vivo screen, Moro SPF or NMRI mice infected with the ANKA strain of P. berghei (groups of 3-5 mice) were treated on day one post-infection with trioxolanes dissolved or suspended in 3% ethanol and 7% Tween 80. […] SSV consists of 0.5% w/v CMC, 0.5% v/v benzyl alcohol, 0.4% v/v Tween 80, and 0.9% w/v sodium chloride in water. Antimalarial activity was measured by percent reduction in parasitemia on day three post-infection and survival times compared to an untreated control group. Survival to day 30 post-infection is considered to be a cure. […] Other factors influencing antimalarial activity include the stability of carbon radicals formed by β-scission subsequent to the initial electron transfer to the peroxide bond and the influence of steric effects remote from the peroxide bond on the interactions between carbon radicals and potential drug targets.

Structure (SMILES) | Activity (%) 3 mg/kg SSV po [%]
C[C@H](N)C(=O)NC[C@H]1CC[C@]2(CC1)OO[C@]1(O2)C2CC3CC(C2)CC1C3 [OZ335] | 97
O=C([C@H]1CC[C@@]2(CC1)OO[C@@]1(O2)C2CC3CC(C2)CC1C3)N1CCNCC1 [OZ365] | 92
CCOC(=O)CNC[C@H]1CC[C@]2(CC1)OO[C@]1(O2)C2CC3CC(C2)CC1C3 [OZ290] | 95
c1cnc(NC[C@H]2CC[C@]3(CC2)OO[C@]2(O3)C3CC4CC(C3)CC2C4)nc1 [OZ326] | 7
O=c1ccn(C[C@H]2CC[C@]3(CC2)OO[C@]2(O3)C3CC4CC(C3)CC2C4)cc1 [OZ302] | 88
CCOC(=O)NC[C@H]1CC[C@]2(CC1)OO[C@]1(O2)C2CC3CC(C2)CC1C3 [OZ289] | 92

same assay, conditions: percent reduction in parasitemia day 3 post-infection; single 10 mg/kg po in 3% ethanol and 7% Tween 80; mice

Structure (SMILES) | Activity (%) po [%]
CCN(CC)C(=O)C1CCC2(CC1)OOC1(O2)C2CC3CC(C2)CC1C3 (centres unmarked) [OZ73] | 27
CCS(=O)(=O)CCN1CCC2(CC1)OOC1(O2)C2CC3CC(C2)CC1C3 (centres unmarked) [OZ200] | 81
O=C(O)CCC(=O)N1CCC2(CC1)OOC1(O2)C2CC3CC(C2)CC1C3 (centres unmarked) [OZ58] | 39
O=C1c2ccccc2C(=O)N1CC1(c2ccccc2)CCC2(CC1)OOC1(O2)C2CC3CC(C2)CC1C3 (centres unmarked) [OZ97] | 59
CC(C)N(C(=O)N1CCC2(CC1)OOC1(O2)C2CC3CC(C2)CC1C3)C(C)C (centres unmarked) [OZ194] | 87
O=C(Cn1ccnc1)N1CCC2(CC1)OOC1(O2)C2CC3CC(C2)CC1C3 (centres unmarked) [OZ103] | 86

same assay, conditions: percent reduction in parasitemia day 3 post-infection; single 10 mg/kg po in SSV

Structure (SMILES) | Activity (%) 10 mg/kg SSV po
C[C@H](N)C(=O)NC[C@H]1CC[C@]2(CC1)OO[C@]1(O2)C2CC3CC(C2)CC1C3 [OZ335] | 99.95%
O=C([C@H]1CC[C@@]2(CC1)OO[C@@]1(O2)C2CC3CC(C2)CC1C3)N1CCNCC1 [OZ365] | 99.57%
c1cnc(NC[C@H]2CC[C@]3(CC2)OO[C@]2(O3)C3CC4CC(C3)CC2C4)nc1 [OZ326] | 80%
O=c1ccn(C[C@H]2CC[C@]3(CC2)OO[C@]2(O3)C3CC4CC(C3)CC2C4)cc1 [OZ302] | 99.60%
OC1(Cc2nc3ccccc3s2)CCC2(CC1)OOC1(O2)C2CC3CC(C2)CC1C3 (centres unmarked) [OZ276] | 17/ND %

same assay, conditions: percent reduction in parasitemia day 3 post-infection; single 10 mg/kg sc in 3% ethanol and 7% Tween 80; mice

Structure (SMILES) | Activity (%) sc [%]
CCN(CC)C(=O)C1CCC2(CC1)OOC1(O2)C2CC3CC(C2)CC1C3 (centres unmarked) [OZ73] | 36
CCS(=O)(=O)CCN1CCC2(CC1)OOC1(O2)C2CC3CC(C2)CC1C3 (centres unmarked) [OZ200] | 92
O=C(O)CCC(=O)N1CCC2(CC1)OOC1(O2)C2CC3CC(C2)CC1C3 (centres unmarked) [OZ58] | 52
O=C1c2ccccc2C(=O)N1CC1(c2ccccc2)CCC2(CC1)OOC1(O2)C2CC3CC(C2)CC1C3 (centres unmarked) [OZ97] | 66
CC(C)N(C(=O)N1CCC2(CC1)OOC1(O2)C2CC3CC(C2)CC1C3)C(C)C (centres unmarked) [OZ194] | 99.95
O=C(Cn1ccnc1)N1CCC2(CC1)OOC1(O2)C2CC3CC(C2)CC1C3 (centres unmarked) [OZ103] | 87

same assay, conditions: percent reduction in parasitemia day 3 post-infection; single po dose in standard suspending vehicle (SSV); mice

Structure (SMILES) | Activity (%) SSVpo [%]
CCS(=O)(=O)CCN1CCC2(CC1)OOC1(O2)C2CC3CC(C2)CC1C3 (centres unmarked) [OZ200] | 78
O=C1c2ccccc2C(=O)N1CC1(c2ccccc2)CCC2(CC1)OOC1(O2)C2CC3CC(C2)CC1C3 (centres unmarked) [OZ97] | 2
CC(C)N(C(=O)N1CCC2(CC1)OOC1(O2)C2CC3CC(C2)CC1C3)C(C)C (centres unmarked) [OZ194] | 73
O=C(Cn1ccnc1)N1CCC2(CC1)OOC1(O2)C2CC3CC(C2)CC1C3 (centres unmarked) [OZ103] | 63

same assay, conditions: single 3 mg/kg po in SSV

Structure (SMILES) | Survival (days) 3 mg/kg SSV po
O=C([C@H]1CC[C@@]2(CC1)OO[C@@]1(O2)C2CC3CC(C2)CC1C3)N1CCNCC1 [OZ365] | 8.0/8.0 days

same assay, conditions: single 10 mg/kg po in 3% ethanol and 7% Tween 80; untreated control 5.6 ± 0.3

Structure (SMILES) | Survival (days) po [days]
CCN(CC)C(=O)C1CCC2(CC1)OOC1(O2)C2CC3CC(C2)CC1C3 (centres unmarked) [OZ73] | 6.0
CCS(=O)(=O)CCN1CCC2(CC1)OOC1(O2)C2CC3CC(C2)CC1C3 (centres unmarked) [OZ200] | 7.0
O=C(O)CCC(=O)N1CCC2(CC1)OOC1(O2)C2CC3CC(C2)CC1C3 (centres unmarked) [OZ58] | 6.0
O=C1c2ccccc2C(=O)N1CC1(c2ccccc2)CCC2(CC1)OOC1(O2)C2CC3CC(C2)CC1C3 (centres unmarked) [OZ97] | 6.7
CC(C)N(C(=O)N1CCC2(CC1)OOC1(O2)C2CC3CC(C2)CC1C3)C(C)C (centres unmarked) [OZ194] | 8.3
O=C(Cn1ccnc1)N1CCC2(CC1)OOC1(O2)C2CC3CC(C2)CC1C3 (centres unmarked) [OZ103] | 7.3

same assay, conditions: single 10 mg/kg po in SSV

Structure (SMILES) | Survival (days) 10 mg/kg SSV po
C[C@H](N)C(=O)NC[C@H]1CC[C@]2(CC1)OO[C@]1(O2)C2CC3CC(C2)CC1C3 [OZ335] | 9.2 days
O=C([C@H]1CC[C@@]2(CC1)OO[C@@]1(O2)C2CC3CC(C2)CC1C3)N1CCNCC1 [OZ365] | 8.0/8.0 days
CCOC(=O)CNC[C@H]1CC[C@]2(CC1)OO[C@]1(O2)C2CC3CC(C2)CC1C3 [OZ290] | 9.0 days
c1cnc(NC[C@H]2CC[C@]3(CC2)OO[C@]2(O3)C3CC4CC(C3)CC2C4)nc1 [OZ326] | 7.4 days
OC1(Cc2nc3ccccc3s2)CCC2(CC1)OOC1(O2)C2CC3CC(C2)CC1C3 (centres unmarked) [OZ276] | 7.3/ND days

same assay, conditions: single 10 mg/kg sc in 3% ethanol and 7% Tween 80; untreated control 5.6 ± 0.3

Structure (SMILES) | Survival (days) sc [days]
CCN(CC)C(=O)C1CCC2(CC1)OOC1(O2)C2CC3CC(C2)CC1C3 (centres unmarked) [OZ73] | 6.7
CCS(=O)(=O)CCN1CCC2(CC1)OOC1(O2)C2CC3CC(C2)CC1C3 (centres unmarked) [OZ200] | 8.0
O=C(O)CCC(=O)N1CCC2(CC1)OOC1(O2)C2CC3CC(C2)CC1C3 (centres unmarked) [OZ58] | 6.3
O=C1c2ccccc2C(=O)N1CC1(c2ccccc2)CCC2(CC1)OOC1(O2)C2CC3CC(C2)CC1C3 (centres unmarked) [OZ97] | 7.0
CC(C)N(C(=O)N1CCC2(CC1)OOC1(O2)C2CC3CC(C2)CC1C3)C(C)C (centres unmarked) [OZ194] | 20.3
O=C(Cn1ccnc1)N1CCC2(CC1)OOC1(O2)C2CC3CC(C2)CC1C3 (centres unmarked) [OZ103] | 7.3

same assay, conditions: single po dose in SSV; untreated control 5.6 ± 0.3

Structure (SMILES) | Survival (days) SSVpo [days]
CCS(=O)(=O)CCN1CCC2(CC1)OOC1(O2)C2CC3CC(C2)CC1C3 (centres unmarked) [OZ200] | 7.3
O=C1c2ccccc2C(=O)N1CC1(c2ccccc2)CCC2(CC1)OOC1(O2)C2CC3CC(C2)CC1C3 (centres unmarked) [OZ97] | 5.3
CC(C)N(C(=O)N1CCC2(CC1)OOC1(O2)C2CC3CC(C2)CC1C3)C(C)C (centres unmarked) [OZ194] | 8.0
O=C(Cn1ccnc1)N1CCC2(CC1)OOC1(O2)C2CC3CC(C2)CC1C3 (centres unmarked) [OZ103] | 6.7

system: P. falciparum K1 strain (Thailand resistant to chloroquine); experiment: semiautomated microdilution assay, [3H]-hypoxanthine incorporation, K1 strain; format: cell-based, Plasmodium falciparum; details: K1 strain, 72 h incubation
Experimental: as §1, §2

Structure (SMILES) | IC50 (ng/ml) K1 [ng/mL]
CCN(CC)C(=O)C1CCC2(CC1)OOC1(O2)C2CC3CC(C2)CC1C3 (centres unmarked) [OZ73] | 6.5 (≈ 17.9 nM)
CCS(=O)(=O)CCN1CCC2(CC1)OOC1(O2)C2CC3CC(C2)CC1C3 (centres unmarked) [OZ200] | 1.0 (≈ 2.59 nM)
O=C(O)CCC(=O)N1CCC2(CC1)OOC1(O2)C2CC3CC(C2)CC1C3 (centres unmarked) [OZ58] | 7.1 (≈ 19.4 nM)
O=C1c2ccccc2C(=O)N1CC1(c2ccccc2)CCC2(CC1)OOC1(O2)C2CC3CC(C2)CC1C3 (centres unmarked) [OZ97] | 2.2 (≈ 4.4 nM)
O=C([C@H]1CC[C@@]2(CC1)OO[C@@]1(O2)C2CC3CC(C2)CC1C3)N1CCNCC1 [OZ365] | 0.79 (≈ 2.1 nM)
CCOC(=O)CNC[C@H]1CC[C@]2(CC1)OO[C@]1(O2)C2CC3CC(C2)CC1C3 [OZ290] | 0.42 (≈ 1.11 nM)
c1cnc(NC[C@H]2CC[C@]3(CC2)OO[C@]2(O3)C3CC4CC(C3)CC2C4)nc1 [OZ326] | 0.65 (≈ 1.75 nM)
C1CCC(NC2CCC3(CC2)OOC2(O3)C3CC4CC(C3)CC2C4)CC1 (centres unmarked) [OZ162] | 0.50 (≈ 1.38 nM)
O=C1CCC(=O)N1C[C@H]1CC[C@]2(CC1)OOC1(O2)C2CC3CC(C2)CC1C3 (some centres unmarked) [OZ197] | 1.0 (≈ 2.66 nM)
NCC[C@H]1CC[C@]2(CC1)OOC1(O2)C2CC3CC(C2)CC1C3 (some centres unmarked) [OZ229] | 0.24 (≈ 0.781 nM)
CC(C)(C)CC(=O)N[C@H]1CC[C@]2(CC1)OOC1(O2)C2CC3CC(C2)CC1C3 (some centres unmarked) [OZ195] | 2.2 (≈ 5.83 nM)
